System: C57BL/6 and p47phox-/- mice infected intranasally with A. fumigatus conidia
Assay: Lung inflammation model: C57BL/6 and p47phox-/- mice infected intranasally with A. fumigatus
Assay type: in vivo
Conditions: p47phox-/- aspergillosis mice
Method: In vivo models mimicking human pathology such as lung and gut inflammation were prepared. A model of lung inflammation was tested using C57BL/6 and p47phox-/- mice. The mice were infected with A. fumigatus intranasally and treated them with Tβ4 for 7 consecutive days starting a week after the infection. LC3-II (FIG. 1F) and DAPK1 (FIG. 1G) expression were both defective in p47phox-/- mice, but restored by Tβ4 and ablated (LC3-II) upon siTβ4 (FIGS. 10A and 10B). In addition, gut inflammation was tested using the same mouse model. Acute colitis in p47phox-/- mice was initiated by administering […] in drinking water for 7 days followed by 7 days of DSS-free autoclaved water. Subsequently, Tβ4 was therapeutically administered daily for 7 days, after DSS treatment, at the time at which mice started to lose weight. Consistent with previous findings (de Luca et al., 2014), LC3-II (FIG. 1H) and DAPK1 (FIG. 1I) expression were both defective in the colon ofp47phox-/- mice with colitis as opposed to WT mice but restored upon treatment with T134 (FIGS. 1H and 1I). DAPK1 expression in colon lysates of C57BL/6 and p47^phox-/- mice subjected to DSS-induced colitis for a week and treated intraperitoneally with 5 mg/kg Tβ4 for 7 consecutive days after DSS treatment, n=6-10 mice per group. Data are presented as mean ±SD and are representative of two experiments. Mice were categorized as Naive (uninfected or untreated mice) or None (infected mice). For immunoblotting, normalization was performed on mouse β-actin or Gapdh and corresponding pixel density or ratio is depicted. For immunofluorescence, nuclei were counterstained with DAPI. Photographs were taken with a high-resolution microscope (Olympus BX51), 40× and 100× magnification. LC3 mean fluorescence intensity (MFI) was measured with the ImageJ software. In FIGS. 1F-1H, n=6-10 mice per group. Data are presented as mean ±SD and are representative of two experiments. Naïve, uninfected or untreated mice. None, infected mice.
Viable conidia from the A. fumigatus Af293 strain were obtained as described (De Luca et al., 2012). Mice were anesthetized in a plastic cage by inhalation of 3% isoflurane (Forane Abbot) in oxygen before intranasal instillation of 2×10^7 resting conidia/20 μl saline. For survival curves, p47^phox-/- mice were challenged with […] conidia/20 μl saline. Tβ4 was administered intraperitoneally (i.p.) at the dose of 5 mg/kg at an effective dose as described (Badamchian et al., Thymosin beta(4) reduces lethality and down-regulates inflammatory mediators in endotoxin-induced septic shock. Int Immunopharmacol, 2003 3(8): p. 1225-33), every day in concomitance with (days 0→7) or after (days 7→14) infection. DMOG (Merck Millipore) was administered i.p. at the dose of 8 mg/mouse concomitantly to the infection. For Hif1a silencing, each mouse received intranasal administration of 10 mg/kg unmodified siRNA [Duplex name mm.Ri.Hif1a.13.1 (IDT); 5′-[…]-3′; 3′-[…] -5′] and Tmsb4x silencing [Duplex name mm.Ri.Tmsb4x.13.1; 5′-[…]-3′; 3′-[…] -5′], or equivalent dose of nonspecific control siRNA duplex in a volume of 20 μl of duplex buffer (IDT). Intranasal siRNA was given once the day before infection and 1, 3 and 5 days after infection (Iannitti et al., 2013 Hypoxia promotes danger-mediated inflammation via receptor for advanced glycation end products in cystic fibrosis. Am J Respir Crit Care Med 188:1338-1350). It is known that lung-specific siRNA delivery can be achieved by intranasal administration without the use of viral vectors or transfection agents in vivo (Iannitti et al., 2013 Th17/Treg imbalance in murine cystic fibrosis is linked to indoleamine 2,3-dioxygenase deficiency but corrected by kynurenines. Am J Respir Crit Care Med 187:609-620). Mice were sacrificed 7 or 14 days post infection. Fungal burden was determined by qPCR and expressed as conidial equivalents (CE). Lung tissue was aseptically removed and homogenized in 3 ml of sterile saline. […]

## COC(=O)CNC(=O)C(=O)OC [DMOG, dimethyloxalylglycine, reference compound]
DMOG for 5 days (FIG. 7A)
  fungal burden: reduced
DMOG for 5 days (FIG. 7B)
  lung pathology: ameliorated
DMOG for 5 days (FIG. 7C)
  HIF-1α expression: increased
DMOG for 5 days (FIG. 7D)
  HIF-1α-responsive genes: up-regulated

From patent US20220241378A1, “COMPOSITIONS AND METHODS FOR TREATMENT OF CHRONIC GRANULOMATOUS DISEASE” (priority 2019, published 2022)
